In PMC6842385, “Identifying new topoisomerase II poison scaffolds by combining publicly available toxicity data and 2D/3D-based virtual screening” (Journal of Cheminformatics, 2019):

System: T1, Top2
T1 construct: gene TOP2A; Top2 used in TopoGEN decatenation assay
Assay: kDNA decatenation assay, agarose gel
Assay type: biochemical
Details: kinetoplast DNA 0.2 μg in 20 μl, 5 mM ATP, 10 mM MgCl2, 150 mM NaCl, pH 8.0, 37 °C, 30 min
Excerpt: kDNA decatenation assay, agarose gel on Top2

| Structure (SMILES) | IC50 [µM] | IC50 (positive control) [µM] |
| --- | --- | --- |
| CCN(CC)CCNc1ccc(C)c2sc3ccc(O)cc3c(=O)c12 [compound 317921, NSC317921] | 7.5 |  |
| CCN(CC)CCNc1ccc2nc(C)n3c4ccc(O)cc4c(=O)c1c23 [compound 637992, NSC637992] | 3.3 |  |
| COc1cccc2c(N)c3cccc(C(=O)NCCN(C)C)c3nc12 [compound 691240, NSC691240] | 12.1 |  |
| O=C1c2c(O)ccc(O)c2C(=O)c2c(NCCNCCO)ccc(NCCNCCO)c21 [compound 301739, mitoxantrone] |  | 3.3 |
| CCN(CC)CCNc1ccc2ncn3c4c(OC)ccc(OC)c4c(=O)c1c23 [compound 660839, NSC660839] | > 100 |  |
